Tests used:
total testosterone = conditions: bicalutamide single agent therapy, humans; cited from earlier work
[1] = tested on: free testosterone concentration; conditions: after 24 weeks of daily 150 mg CASODEX alone; prostate cancer; cited from earlier work
[2] = tested on: testosterone, LH, oestradiol, FSH levels; conditions: cited from earlier work

Experimental for free testosterone levels: The following clinical trial was performed to determine the effect of the administration of CASODEX™ together with ARIMIDEX™ on free testosterone levels in healthy male volunteers over a 6 week period.
Dosage: The CASODEX™ was administered daily at a dose of 150 mg and the ARIMIDEX™ was administered daily at a dose of 1 mg. All treatments were in tablet form and taken once daily. Daily treatment with CASODEX™ was for 6 weeks, and with ARIMIDEX™ for the final 2 weeks of this period. The treatment periods were selected as the minimum time to attain steady-state plasma concentrations for the drugs.
Key Assessment: Free testosterone concentrations were measured during the course of the trial.

| SMILES | Change in basal level of total testosterone (total testosterone) | Increase in mean free testosterone concentration (free testosterone levels; CASODEX alone, end of the treatment period (4 weeks)) [%] | Free testosterone, ratio to Day 1 (free testosterone levels; Day 29, CASODEX 150 mg daily alone) | Free testosterone concentration, gmean (free testosterone levels; Day 29, CASODEX 150 mg daily alone (up to week 4), n=7) [nmol/1] | Increase in mean free testosterone concentration [1] [%] | Effect on mean serum testosterone, oestradiol, LH levels, LH pulse frequency and amplitude ([2]; 13 normal men, 6 week period (Spijkstra et al)) | Effect on basal serum levels of LH, oestradiol and testosterone ([2]; administration to men (Lewis-Jones et al)) | Effect on testosterone and LH ([2]; intake in adult men (Comhaire et al)) | Effect on basal LH, FSH and testosterone levels ([2]; three months' treatment, normogonadotrophic oligozoospermic men (van Bergeijk et al)) |
| --- | --- | --- | --- | --- | --- | --- | --- | --- | --- |
| CC(O)(CS(=O)(=O)c1ccc(F)cc1)C(=O)Nc1ccc(C#N)c(C(F)(F)F)c1 (stereo not drawn) [CASODEX, 4′-cyano-α′,α′, α′-trifluoro-3-(4-fluorophenylsulphonyl)-2-hydroxy-2-methylpropiono-m-toluidide] | approximate doubling | 58 | 1.58 | 0.076 | 57 |  |  |  |  |
| CC/C(=C(\c1ccccc1)c1ccc(OCCN(C)C)cc1)c1ccccc1 [tamoxifen] |  |  |  |  |  | An increase | elevates the basal serum levels | increase testosterone and LH | stimulated basal LH, FSH and testosterone levels |

From patent US20030114519A1, “Pharmaceutical combination of bicalutamide and anastrozole for providing an anti-androgenic effect and aromatase inhibition” (priority 2002, published 2003)
